Results as given in patent US20130095189A1, “COMPOSITION AND METHOD OF PHYTONUTRIENTS FOR METABOLIC PROGRAMMING EFFECTS” (priority 2011, published 2013).
Entries after “also recorded” stand apart in the source; their conditions may differ.

What was measured:
Assay type in all cases: cell-based, human
NQO1 mRNA = NQO1 mRNA expression by TaqMan real-time PCR in skin fibroblast cell models
From the text: (§1) Total cellular RNA is isolated using Genelute Mammalian Total RNA Kit (Sigma-Aldrich) according to the manufacturer's instructions. […] Standard curves are constructed with serial dilutions of control sample and analyzed using ABI software. Data are normalized against a house keeping gene, 18S ribosomal RNA. Gene expression is quantified by ^ΔΔCt method where fold of induction=2^-ΔΔ[…]., Analysis of relative gene expression data using real-time quantitative PCR and the 2(-Delta Delta C(T)) Method. Methods 2001. 25, 402-408).

GST mRNA = GST mRNA expression by TaqMan real-time PCR in skin fibroblast cell models
From the text: as §1

NQO1 = NQO1 protein expression by immunoblotting in skin fibroblast cell models; conditions: 24 h
Experimental: (§2) Treated and control cells are washed twice with ice cold phosphate buffered saline (PBS) and then incubated for 30 min in the Nonidet P-40 (NP-40) buffer (20 mM Tris-HCl, pH 8, 150 mM NaCl, 10% glycerol, 1% NP-40) containing one tablet of complete mini-EDTA-free protease inhibitor cocktail (Roche) in 10 ml buffer. Cells are harvested by scraping and the homogenate is centrifuged at 13,684 g at 4° C. for 15 min. The supernatants are collected and frozen at −80° C. The protein concentrations are determined using Bradford reagent (Sigma) according to the manufacturer's instructions. 20 μg of protein lysate is resolved by 10% SDS-polyacrylamide gel and transferred onto polyvinylidenedifluoride membranes (Bio-Rad) with a semidry transfer cell (Trans-Blot; Bio-Rad). Membranes are blocked for 1 hour at room temperature or overnight at 4° C. with Marvel fat-free milk powder (5% w/v), Tween 20 (0.05%, v/v) in PBS. Proteins of interest are visualized by exposing membranes to primary antibodies in milk for 2 hours at room temperature. Dilutions of antibodies are rabbit polyclonal GSTA1, 1:2000, goat polyclonal NQO1 1:1000 and goat polyclonal UGT1A 1:1000. Following primary antibody incubation membranes are incubated with suitable HRP-conjugated secondary antibody and signals are detected using an enhanced chemiluminescence kit (GE Healthcare) according to manufacturer's instructions. β-actin level is determined as loading control and bands are visualized using Fujifilm LAS3000 Imager.

UGT (UGT1A) = assay: UGT protein expression by immunoblotting in skin fibroblast cell models; conditions: 24 h
Experimental: as §2

UGT mRNA = UGT mRNA expression by TaqMan real-time PCR in skin fibroblast cell models
From the text: as §1

GST (GSTA1) = assay: GST protein expression by immunoblotting in skin fibroblast cell models; conditions: 24 h
Experimental: as §2

[1] = 1 month old cell model, 5, 10, 20 μM
[2] = 1 month old cell model, control=1
[3] = cell model, all concentrations tested
[4] = adult cell model, highest concentration (20 μM), control=1

Compound | NQO1 mRNA expression relative to control (NQO1 mRNA; [1]) | NQO1 mRNA expression relative to control (NQO1 mRNA; adult cell model, 5, 10, 20 μM) | NQO1 mRNA expression relative to control (NQO1 mRNA; infant cell models) | upregulation of GST mRNA compared to control (GST mRNA; [2]) [fold] | GST mRNA expression relative to control (GST mRNA; adult cell model, 5, 10, 20 μM) | GST mRNA expression relative to control (GST mRNA; infant cell models) | NQO1 protein expression (immunoblot, ratio to beta-actin) (NQO1; adult cell model, higher dose) | NQO1 protein expression (immunoblot, ratio to beta-actin) (NQO1; cell model, higher doses) | UGT protein expression (immunoblot, ratio to beta-actin) (UGT (UGT1A); cell model, higher doses) | UGT mRNA expression relative to control (UGT mRNA; adult cell model, 5, 10, 20 μM) | GST protein expression (immunoblot, ratio to beta-actin) (GST (GSTA1); adult cell model, 5, 10, 20 μM) | GST protein expression (immunoblot, ratio to beta-actin) (GST (GSTA1); cell model, higher doses) | other results
catechin | unaffected | dose-response upregulation | significant increases | 3.7 | dose-response upregulation | significant increases | significant upregulation | significantly upregulated | significantly upregulated | an increase | increases | significantly upregulated | increase in NQO1 mRNA expression (NQO1 mRNA; cell model, control=1): 4.5 fold; UGT mRNA expression relative to control (UGT mRNA; [1]): unaffected
C[S+]([O-])CCCCN=C=S (stereo not drawn) [sulforaphane, 4-methylsulfinylbutyl isothiocyanate] |  | significant increase | significant increases |  | significant increase | significantly increased; also recorded: significant increases |  | significantly upregulated | significantly upregulated | significant increase |  | significantly upregulated | increase in NQO1 mRNA compared to control (NQO1 mRNA; infant cell models, control=1): 6-35 fold; NQO1 protein expression (immunoblot, ratio to beta-actin) (NQO1; adult cell model, 5, 10, 20 μM): significant upregulation; UGT protein expression (immunoblot, ratio to beta-actin) (UGT (UGT1A); [1]): significant induction; UGT protein expression (immunoblot, ratio to beta-actin) (UGT (UGT1A); adult cell model, 5, 10, 20 μM): affected
O=c1c(O)c(-c2ccc(O)c(O)c2)oc2cc(O)cc(O)c12 [quercetin] | significantly increased |  |  | 3.9 | significant dose-dependent increase |  | significant upregulation |  |  | significant dose-dependent increase | increases |  | upregulation of NQO1 mRNA compared to control (NQO1 mRNA; [2]): 7.2 fold; NQO1 mRNA expression relative to control (NQO1 mRNA; [3]): do not demonstrate any significant changes; GST mRNA expression relative to control (GST mRNA; [1]): significantly increased; upregulation of GST mRNA (GST mRNA; [4]): 7.4 fold; GST mRNA expression relative to control (GST mRNA; [3]): do not demonstrate any significant changes; upregulation of UGT mRNA (UGT mRNA; [4]): 5.5 fold; UGT mRNA expression relative to control (UGT mRNA; [3]): do not demonstrate any significant changes
